Series [1] is described as follows: Solubility in hexane at room temperature (AF-388 series). The format is physicochemical. Particulars: for solubility in hexane, % wt/vol. / solubility in hexane, % wt/wt: 24° C.; for amount that remained completely dissolved in hexane for months: ambient conditions.
Series [2] can be described thus: Solubility in toluene at room temperature. The series is classed as physicochemical. The text has this: In addition, these chromophores are found to be even more soluble in aromatic hydrocarbon solvents as indicated by the higher solubilities of AF388-118 (≧29 wt %) and AF388-312 (≧67 wt %) in toluene.

As for `CC(C)CCCC(C)CCC1(CCC(C)CCCC(C)C)c2cc(-c3nc4cc5sc(-c6ccc7c(c6)C(CCC(C)CCCC(C)C)(CCC(C)CCCC(C)C)c6cc(N(c8ccccc8)c8ccccc8)ccc6-7)nc5cc4s3)ccc2-c2ccc(N(c3ccccc3)c3ccccc3)cc21` (stereo not shown) [AF-388-118], in series [1], the “solubility in hexane, % wt/vol.” value is 0.41 % wt/vol and the “solubility in hexane, % wt/wt” value is 0.61 % wt/wt. In series [2], the “concentration of toluene solution that remained homogenous” value came to 0.24 M and the solubility in toluene is ≥ 29 wt %. Moreover, in series [2] (72 hours), the “concentration of toluene solution that solidified at room temperature after 72 hours” value is on record as 0.34 M.
For the compound `CC(C)CCCC(C)CCCC(C)CCC1(CCC(C)CCCC(C)CCCC(C)C)c2cc(-c3nc4cc5sc(-c6ccc7c(c6)C(CCC(C)CCCC(C)CCCC(C)C)(CCC(C)CCCC(C)CCCC(C)C)c6cc(N(c8ccccc8)c8ccccc8)ccc6-7)nc5cc4s3)ccc2-c2ccc(N(c3ccccc3)c3ccccc3)cc21` (stereo not shown) [AF-388-312, 2,6-Bis[7-(diphenylimino)-9,9-bis(3,7,1′-trimethyldodecylfluoren-2-yl)]-benzobisthiazole], in series [1], the “solubility in hexane, % wt/vol.” value was 20.2 % wt/vol; the “solubility in hexane, % wt/wt” value was 30.4 % wt/wt; the “amount that remained completely dissolved in hexane for months” value was ≥ 30 wt %. Also, in series [2], the “concentration of toluene solution that remained homogenous” value came to 0.34 M and the solubility in toluene is ≥ 67 wt %.
With `CC(C)CCCC(C)CCCC(C)CCCC(C)CCC1(CCC(C)CCCC(C)CCCC(C)CCCC(C)C)c2cc(-c3nc4cc5sc(-c6ccc7c(c6)C(CCC(C)CCCC(C)CCCC(C)CCCC(C)C)(CCC(C)CCCC(C)CCCC(C)CCCC(C)C)c6cc(N(c8ccccc8)c8ccccc8)ccc6-7)nc5cc4s3)ccc2-c2ccc(N(c3ccccc3)c3ccccc3)cc21` (stereo not shown) [AF-388-416, 2,6-Bis[7-(diphenylimino)-9,9-bis(3,7,11,15-tetramethylhexadecyl)fluoren-2-yl]-benzobisthiazole], in series [1], the “solubility in hexane, % wt/vol.” value worked out at 36.3 % wt/vol; the “solubility in hexane, % wt/wt” value is reported as 51.3 % wt/wt; the “amount that remained completely dissolved in hexane for months” value is on record as ≥ 51 wt %.

For the origin of these results see patent publication US8471035B1, “Two-photon absorbing arylamine-endcapped and dialkylfluorene-bridged benzobisthiazole compounds with high oleophilicity” (The United States of America as represented by the …, priority 2011, dated 2013).
